{
  "source": "patent US6689392B2",
  "about": "“Methods and compositions for controlling plant pathogen” (Agricare Ltd., priority 2001, dated 2004)",
  "key": {"P. aphanidermatum": {"test_system": "P. aphanidermatum", "assay": "Pythium damping-off disease in cucumber seedlings", "assay_type": "in vivo, Pythium aphanidermatum", "details": "drench at 0.07% of active ingredient, after 10 days, FIG. 7"}, "Pythium aphanidermatum": {"test_system": "Pythium aphanidermatum", "assay": "Pythium aphanidermatum mycelial growth in vitro", "assay_type": "cell-based", "details": "recommended dosage of 0.07% of active ingredient; 24 hr, 25° C.; FIG. 6"}, "P. infestans [1]": {"test_system": "P. infestans", "assay_type": "in vivo, Phytophthora infestans", "parameters": "ED90: unit not given beside the values"}, "P. infestans [2]": {"test_system": "P. infestans", "assay_type": "cell-based, Phytophthora infestans", "parameters": "unit not given beside the values"}, "P. infestans [3]": {"test_system": "P. infestans", "assay_type": "in vivo, Phytophthora infestans", "parameters": "unit not given beside the values", "details": "TOMATO; Table 2"}, "P. infestans [4]": {"test_system": "P. infestans", "assay_type": "in vivo, Phytophthora infestans", "parameters": "unit not given beside the values", "details": "POTATO; Table 2"}},
  "note": "Read-outs that look alike come from different tables or passages of the source.",
  "data": [
    {"compound": "CCO[PH](=O)O", "note": "[Fosetyl-Al]", "values": [
      {"measurement": "plants survived in Pythium-inoculated flats", "setting": "P. aphanidermatum", "result": "70-80%"},
      {"measurement": "inhibition of radial growth in vitro", "setting": "Pythium aphanidermatum", "result": 50, "unit": "%"}
    ]},
    {"compound": "OP(O)O", "note": "[H3PO3, Phosphorous Acid]", "values": [
      {"measurement": "Inhibition (% of control)", "setting": "P. infestans [1]; Tomato, 0.01% active ingredient, Table 4", "result": "13 % of control"},
      {"measurement": "Inhibition (% of control)", "setting": "P. infestans [1]; Tomato, 0.02% active ingredient, Table 4", "result": "13 % of control"},
      {"measurement": "Inhibition (% of control)", "setting": "P. infestans [1]; Tomato, 0.05% active ingredient, Table 4", "result": "19 % of control"},
      {"measurement": "Inhibition (% of control)", "setting": "P. infestans [1]; Tomato, 0.1% active ingredient, Table 4", "result": "31 % of control"},
      {"measurement": "ED90", "setting": "P. infestans [1]; in vivo", "result": 2.52},
      {"measurement": "ED90", "setting": "P. infestans [2]", "result": 45}
    ]},
    {"compound": "Potassium Phosphite [K3PO3]", "values": [
      {"measurement": "ED90", "setting": "P. infestans [3]", "result": 1.10},
      {"measurement": "Inhibition (% of control)", "setting": "P. infestans [1]; Tomato, 0.12% active ingredient, Table 3", "result": "50 % of control"},
      {"measurement": "Inhibition (% of control)", "setting": "P. infestans [1]; Tomato, 0.25% active ingredient, Table 3", "result": "63 % of control"},
      {"measurement": "Inhibition (% of control)", "setting": "P. infestans [1]; Tomato, 0.5% active ingredient, Table 3", "result": "86 % of control"},
      {"measurement": "Inhibition (% of control)", "setting": "P. infestans [1]; Tomato, 1.0% active ingredient, Table 3", "result": "98 % of control"},
      {"measurement": "ED90", "setting": "P. infestans [1]; Tomato, Table 3", "result": 0.55},
      {"measurement": "ED90", "setting": "P. infestans [4]", "result": 0.52},
      {"measurement": "ED90", "setting": "P. infestans [2]; tomato leaf discs, Table 1", "result": 130}
    ]}
  ]
}
